Data published in patent publication US20060009438A2, “MODIFIED, HYDROXY-SUBSTITUTED AROMATIC STRUCTURES HAVING CYTOPROTECTIVE ACTIVITY” (Washington University, priority 2000, published 2006).
Like-named read-outs stand apart in the source and are kept apart here.

Experiments:
[1] = tested on: HT-22 cells (immortalized hippocampal neurons); test: HT-22 Cell Neuroprotection Assay (glutamate insult, calcein AM viability); assay type: cell-based, murine; conditions: ~16 h
Protocol: HT-22 cells (immortalized hippocampal neurons of murine origin) were maintained in DMEM media (Life Technologies, Inc., Gaitherburg, MD) supplemented with 10% charcoal-stripped FBS (HyClone Laboratories, Inc., Logan, UT) and 20 µg/mL gentamycin, according to standard culture conditions.
Cells were plated at a density of 5,000 cells/well in clear-bottomed Nunc 96-well plates (Fisher Scientific, Orlando, FL) and allowed to incubate overnight. Steroids dissolved in DMSO were added at concentrations ranging from 0.01-10 µM and were co-administered with glutamate (10 mM or 20 mM). DMSO was used at concentrations of 0.1% vol/vol as a vehicle control and had no discernible effect on cell viability. After ~16 h of glutamate exposure, cells were rinsed with PBS, pH 7.4, and viability was assessed by the addition of 25 µM calcein AM (Molecular Probes, Inc., Eugene, OR) in PBS for 15 min at room temperature. Fluorescence was determined (excitation 485, emission 530) using a fluorescence FL600 microplate reader (Biotek, Winooski, VT). Cells that were lysed by addition of methanol were used for blank readings. All data were normalized to % cell death, as calculated by (control value - insult value)/control value x 100.

cortical neurons = test: NMDA-induced neuronal cell death in mixed cortical neuron/glial cultures (Trypan blue counting); assay type: cell-based, mouse
Protocol: Glial cell cultures: Glial cell cultures were prepared from P1 mice. Briefly, cortex from P1 mice were dissected and digested with 0.025% trypsin for 30-40 min. After trituration, the cells were plated on poly-D-lysine/laminin coated glass-bottom dishes at a density of approximately 5 x 10^6 cells per dish. Cells were grown for 7-10 days in Eagle's minimal essential medium supplemented with 10% fetal bovine serum, 10% horse serum, 10 ng/ml epidermal growth factor, 2 mM glutamine and 20 mM glucose. Cultures were kept at 37°C in a humidified CO2 atmosphere until they reached confluence. Cultures were then used to support neurons (see below).
Cortical neuronal cultures: Cortical neurons were prepared from E15-16 mouse embryos. Dissociated cortical cells (at a density of 5x 10^6 cells per dish) were plated on a layer of confluent glial cells (7-10 days in vitro), into Eagle's minimal essential medium supplemented with 5% fetal bovine serum, 5% horse serum, 2 mM glutamine, and 21 mM glucose. Cultures were kept at 37°C in a humidified 5% CO2 atmosphere. After 3-5 days in vitro, non-neuronal cell division was halted by exposure to 10^-5 M cytosine arabinoside for 2 days, and cultures were shifted to a growth medium identical to the plating medium but lacking […]. Cultures 9-14 days in vitro were used for the experiments.
Neuronal cell death: Mixed neuron/glial cultures were exposure to NMDA (30 µM) for 24 hours in medium stock (MS) (minimal essential medium with 15.8 mM NaHCO3 and 20 mM glucose, pH 7.4) at 37°C. Cell death was assessed […] by counting cells that stained with Trypan blue (0.4% for 10 minutes at 37°C). Stained neurons were counted from three random fields per dish. For the experiments to test the neuroprotective effect of the 17-β-estradiol and the adamantyl-modified analog thereof, cultures were incubated with the drugs for various time periods prior to when NMDA was added to the medium. Results

[2] = 10 mM glutamate co-administered, read-out: Sterioid concentration needed to protect 50% of neurons killed by 10 mM Glutamate ED50
[3] = 20 mM glutamate co-administered, read-out: Sterioid concentration needed to protect 50% of neurons killed by 20 mM Glutamate ED50

| Compound | EC50 [1, 2] [nM] | EC50 [1, 3] [nM] | also measured |
| --- | --- | --- | --- |
| C[C@@]12CC[C@H]3c4ccc(O)cc4CC[C@@H]3[C@H]1CC[C@H]2O (single isomer, unassigned; ent-17) [Ent-(17 β)-Estradiol, ent-17β-estradiol] | 1070 | 1270 |  |
| C[C@]12CC[C@@H]3c4ccc(O)cc4CC[C@H]3[C@@H]1CC[C@H]2O [17 α-Estradiol, 17α-estradiol] | 3100 | 16100 |  |
| C[C@]12CC[C@@H]3c4ccc(O)cc4CC[C@H]3[C@@H]1CC[C@@H]2O [17-β Estradiol, 17-β-estradiol] | 2210 | 3010 | reduction of neuronal loss due to NMDA exposure (cortical neurons; 10 µM drug, pre-incubation, 30 µM NMDA for 24 hours (Figure 5)): about 15% |
| C[C@]12CC[C@@H]3c4cc(C56CC7CC(CC(C7)C5)C6)c(O)cc4CC[C@H]3[C@@H]1CC[C@@H]2O [ZYC-5, (17 β)-2-(1-Adamantyl)-estra-1,3,5(10)-triene-3,17-diol] |  |  | protective effect against NMDA-induced neuronal death (cortical neurons; 100 nM dosage, 30 µM NMDA for 24 hours (Figure 5)): 10%; protection from neuronal death due to NMDA exposure (cortical neurons; 1 µM drug, pre-incubation, 30 µM NMDA for 24 hours (Figure 5)): about half; effectiveness relative to 17-β-estradiol (cortical neurons; 1 µM versus 10 µM 17-β-estradiol (one-tenth the dosage)): more than three times more effective; neuronal survival versus pre-incubation time (cortical neurons; 1 µM, 1-12 hours pre-incubation prior to NMDA exposure (Figure 6)): no significant difference; neuronal protection versus pre-incubation time (cortical neurons; 1 µM, 24 hours pre-incubation prior to NMDA exposure (Figure 6)): best protection results |
| Cc1c(O)c(C(C)(C)C)cc2c1CC[C@@H]1[C@@H]2CC[C@]2(C)C(=O)CC[C@@H]12 [ZYC-25, 2-(1,1-Dimethylethyl)-3-hydroxy-4-methylestra-1,3,5(10)-trien-17-one] |  |  | melting point: 190 to 192 °C |
| Cc1c(O)c(C23CC4CC(CC(C4)C2)C3)cc2c1CC[C@@H]1[C@@H]2CC[C@]2(C)C(=O)CC[C@@H]12 [ZYC-26, 2-(1-admantanyl)-3-hydroxy-4-methylestra-1,3,5(10)-trien-17-one] |  |  | melting point: 262 to 263 °C |
| CC12CCC3c4cc(C56CC7CC(CC(C7)C5)C6)c(O)cc4CCC3C1CCC2O (stereo not drawn) [ZYC-33, Ent-(17β)-2-(1-Adamantyl)estra-1,3,5(10)-triene-3,17-diol] | 65 | 19 |  |
| CC(C)(C)c1cc2c(cc1O)CCC1C2CCC2(C)C(O)CCC12 (stereo not drawn) [ZYC-34, Ent-(17β)-2-(1,1-dimethylethyl)estra-1,3,5(10)-triene-3,17-diol] | 240 | 260 |  |
